Laboratory results published in US5464617A, “β-lactam compounds” (Hoffmann-La Roche Inc., priority 1994, dated 1995).
Values after ≈ are worked out from the molar mass of the structure shown. Structures can show the parent of a compound that is named as a salt.

test system: Citrobacter freundii 1982; assay: MIC in vitro of a 1:4 combination of ceftriaxone with a compound of formula I (Test D); assay type: cell-based; conditions: Table 2; 1:4 combination of ceftriaxone with the compound
Procedure: The minimum inhibitory concentration in vitro ([…]) of a 1:4 combination of ceftriaxone with a compound of formula I against Citrobacter freundii 1982 was measured and compiled in Table 2 hereinafter.

| SMILES | MIC C. freundii 1982 [µg/mL] |
| --- | --- |
| Cn1nnnc1SC1=C(C(=O)O)N2C(=O)[C@@H]3[C@H]2[C@H](C1)CN3C(=O)NC1CCSC1=O (mixture of isomers) [3(f), (1aS,3aR,6bR)-5-(1-Methyl-1H-tetrazol-5-ylsulphanyl)-1-oxo-2-[(R)- and [(S)-2-oxo-tetrahydro-thien-3-ylcarbamoyl]-1a,2,3,3a,4,6b-hexahydro-1H-2,6a-diazacyclobut[cd]indene-6-carboxylic acid sodium salt] | 0.06 |
| Cn1nnnc1SC1=C(C(=O)O)N2C(=O)[C@@H]3[C@H]2[C@H](C1)CN3C(=O)NC1CCS(=O)(=O)C1 (mixture of isomers) [3(i), (1aS,3aR,6bR)-2-[(R)- and [(S)-1,1-dioxo-tetrahydrothien-3-ylcarbamoyl)-5-(1-methyl-1H-tetrazol-5-ylsulphanyl)-1-oxo-1a,2,3,3a,4,6b-hexahydro-1H-2,6a-diazacyclobut[cd]indene-6-carboxylic acid sodium salt] | 0.06 |
| Cn1nnnc1SC1=C(C(=O)O)N2C(=O)[C@@H]3[C@H]2[C@H](C1)CN3C(=O)Nc1ccc(C(N)=O)cc1 [3(b), (1aS,3aR,6bR)-2-(4-Carbamoyl-phenylcarbamoyl)-5-(1-methyl-1H-tetrazol-5-ylsulphanyl)-1-oxo-1a,2,3,3a,4,6b-hexahydro-1H-2,6a-diazacyclobut[cd]indene-6-carboxylic acid sodium salt] | 0.25 |
| Cn1nnnc1SC1=C(C(=O)O)N2C(=O)[C@@H]3[C@H]2[C@H](C1)CN3C(=O)N[C@H]1CCNC1=O [3(c), (1aS,3aR,6bR)-2-[(S)-2-Oxo-pyrrolidin-3-ylcarbamoyl]-5-(1-methyl-1H-tetrazol-5-ylsulphanyl)-1-oxo-1a,2,3,3a,4,6b-hexahydro-1H-2,6a-diazacyclobut[cd]indene-6-carboxylic acid sodium salt] | 0.25 |
| Cc1nnc(SC2=C(C(=O)O)N3C(=O)[C@@H]4[C@H]3[C@H](C2)CN4C(=O)Nc2ccc(C(N)=O)cc2)s1 [3(k), (1aS,3aR,6bR)-2-(4-Carbamoyl-phenylcarbamoyl)-5-(5-methyl-1,3,4-thiadiazol-2-ylsulphanyl)-1-oxo-1a,2,3,3a,4,6b-hexahydro-1H-2,6a-diazacyclobut[cd]indene-6-carboxylic acid sodium salt] | 0.5 |
| NC(=O)c1ccc(NC(=O)N2C[C@H]3CC(Sc4nnc(N)s4)=C(C(=O)O)N4C(=O)[C@@H]2[C@@H]34)cc1 [3(m), (1aS,3aR,6bR)-5-(5-Amino1,3,4-thiadiazol-2-ylsulphanyl)-2-(4-carbamoyl-amino-phenylcarbamoyl)-1-oxo-1a,2,3,3a,4,6b-hexahydro-1H-2,6a-diazacyclobut]cd]indene-6-carboxylic acid sodium salt] | 0.25 |
| CS(=O)(=O)OC1=C(C(=O)O)N2C(=O)[C@@H]3[C@H]2[C@H](C1)CN3C(=O)N[C@H]1CCNC1=O [9(e), (1aS,3aR,6bR)-5-Methylsulphonyloxy-1-oxo-2-[(S)-2-oxo-pyrrolidin-3-ylcarbamoyl]-1a,2,3,3a,4,6b-hexahydro-1H-2,6a-diazacyclobut[cd]indene-6-carboxylicacid sodium salt] | 0.25 |
| CC(C)(C)OC(=O)N1C[C@H]2CC(OS(C)(=O)=O)=C(C(=O)O)N3C(=O)[C@@H]1[C@@H]23 [10(a), (1aS,3aR,6bR)-2-t-Butoxycarbonyl-5-methylsulphonyloxy-1-oxo-1a,2,3,3a,4,6b-hexahydro-1H-2,6a-diazacyclobut[cd]-indene-6-carboxylic acid sodium salt] | 1 |
| Cc1ccc(S(=O)(=O)OC2=C(C(=O)O)N3C(=O)[C@@H]4[C@H]3[C@H](C2)CN4C(=O)OC(C)(C)C)cc1 [10(d), (1aS,3aR,6bR)-2-t-Butoxycarbonyl-5-(4-methyl-phenylsulphonyloxy)-1-oxo-1a,2,3,3a,4,6b-hexahydro-1H-2,6a-diazacyclobut[cd]indene-6-carboxylic acid sodium salt] | 8 |
| COC(=O)CC1=C(C(=O)O)N2C(=O)[C@@H]3[C@H]2[C@H](C1)CN3C(=O)Nc1ccc(O)cc1 [13(b), (1aS,3aR,6bR)-2-(4-Hydroxy-phenylcarbamoyl)-5-methoxycarbonylmethyl-1-oxo-1a,2,3,3a,4,6b-hexahydro-1H-2,6a-diazacyclobut[cd]indene-6-carboxylic add sodium salt] | 0.25 |
| O=C([O-])C1=C(C[n+]2ccccc2)C[C@@H]2CN(C(=O)Nc3ccc(O)cc3)[C@@H]3C(=O)N1[C@H]23 [23(a)] | 1 |
| O=C([O-])C1=C(C[n+]2ccccc2)C[C@@H]2CN(C(=O)NCc3cc(O)no3)[C@@H]3C(=O)N1[C@H]23 [23(b), (1aS,3aR,6bR)-2-(3-Hydroxy-isoxazol-5-ylmethylcarbamoyl)-1-oxo-5-(pyridin-1-yliomethyl)-1a,2,3,3a,4,6b-hexahydro-1H-2,6a-diazacyclobut[cd]indene-6-carboxylate] | 1 |
| NC(=O)c1ccc(NC(=O)N2C[C@H]3CC(C[n+]4ccccc4)=C(C(=O)[O-])N4C(=O)[C@@H]2[C@@H]34)cc1 [23(c), (1aS,3aR,6bR)-2-(4-Carbamoyl-phenylcarbamoyl)-1-oxo-5-(pyridin-1-yliomethyl)-1a,2,3,3a,4,6b-hexahydro-1H-2,6a-diazacyclobut[cd]indene-6-carboxylate] | 0.25 |
| O=C(C[n+]1ccccc1)Nc1nnc(SC2=C(C(=O)[O-])N3C(=O)[C@@H]4[C@H]3[C@H](C2)CN4C(=O)Nc2ccc(O)cc2)s1 [Example 5, (1aS,3aR,6bR)-2-(4-Hydroxy-phenylcarbamoyl)-1-oxo-5-[5-(pyridin-1-ylioacetylamino)-1,3,4-thiadiazol-2-ylsulphanyl]-1a,2,3,3a,4,6b-hexahydro-1H-2,6a-diazacyclobut[cd]indene-6-carboxylic acid] | 2 |
| C[n+]1ccc(SCC2=C(C(=O)[O-])N3C(=O)[C@@H]4[C@H]3[C@H](C2)CN4C(=O)Nc2ccc(C(N)=O)cc2)cc1 [Example 21, (1aS,3aR,6bR)-2-(4-Carbamoyl-phenylcarbamoyl)-5-(1-methylpyridin-1-yliosulphanylmethyl)-1-oxo-1a,2,3,3a,4,6b-hexahydro-1H-2,6a-diazacyclobut[cd]indene-6-carboxylate] | 0.5 |
| CC(=O)OCC1=C(C(=O)O)N2C(=O)[C@@H]3[C@H]2[C@H](C1)CN3C(=O)Nc1ccc(O)cc1 [Example 25, (1aS,3aR,6bR)-5-Acetoxymethyl-2-(4-hydroxy-phenylcarbamoyl)-1-oxo-1a,2,3,3a,4,6b-hexahydro-1H-2,6a-diazacyclobut[cd]indene-6-carboxylic acid sodium salt] | 0.25 |

same assay, conditions: Table 4; test D, 1:4 combination of ceftriaxone with the compound

| SMILES | MIC C. freundii 1982 (D) [µg/mL] |
| --- | --- |
| Cn1nnnc1SCC1=C(C(=O)O)N2C(=O)[C@@H]3[C@H]2[C@H](C1)CN3C(=O)NCc1cccs1 [18(g), (1aS,3aR,6bR)-1-Oxo-5-(1-methyl-1H-tetrazol-5-yl-sulphanylmethyl)-2-thiophen-2-ylmethylcarbamoyl-1a,2,3,3a,4,6b-hexahydro-1H-2,6a-diazacyclobut[cd]indene-6-carboxylic acid sodium salt] | 0.5 |
| Cn1nnnc1SCC1=C(C(=O)O)N2C(=O)[C@@H]3[C@H]2[C@H](C1)CN3S(=O)(=O)C(F)(F)F [19(f), (1aS,3aR,6bR)-5-(1-Methyl-1H-tetrazol-5-ylsulphanylmethyl)-1-oxo-2-trifluormethylsulphonyl-1a,2,3,3a,4,6b-hexahydro-1H-2,6a-diazacyclobut[cd]indene-6-carboxylic acid sodium salt] | 4 |
| COC(=O)CN1C[C@H]2CC(CSc3nnnn3C)=C(C(=O)O)N3C(=O)[C@@H]1[C@@H]23 [61(a), (1aS,3aR,6bR)-2-Methoxycarbonylmethyl-5-(1-methyl-1H-tetrazol-5-ylsulphanylmethyl)-1-oxo-1a,2,3,3a,4,6b-hexahydro-1H-2,6a-diazacyclobut[cd]indene-6-carboxylic acid] | 0.25 |

test system: E. coli 1346; assay: Antibacterial activity of the products per se, serial dilution method in liquid medium (Test E); assay type: cell-based; conditions: Table 3; product per se, liquid medium
From the text: The antibacterial activity of the products per se is illustrated on the basis of Table 3 hereinafter, the minimum inhibitory concentration […] in vitro against E. coli 1346 being determined using the serial dilution method in liquid medium: […]

| SMILES | MIC E. coli 1346 [µg/mL] |
| --- | --- |
| Cc1nnc(SC2=C(C(=O)O)N3C(=O)[C@@H]4[C@H]3[C@H](C2)CN4C(=O)Nc2ccc(O)cc2)s1 [3(j), (1aS,3aR,6bR)-2-(4-Hydroxyphenylcarbamoyl)-5-(5-methyl-1,3,4-thiadiazol-2-ylsulphanyl)-1-oxo-1a,2,3,3a,4,6b-hexahydro-1H-2,6a-diazacyclobut[cd]indene-6-carboxylic acid sodium salt] | 32 |
| CS(=O)(=O)OC1=C(C(=O)[O-])N2C(=O)[C@@H]3[C@H]2[C@H](C1)CN3C(=O)C[n+]1cccc(C(N)=O)c1 [11(a), (1 aS,3aR,6bR)-2-(3-Carbamoyl-pyridin-1-ylioacetyl)-5-methylsulphonyloxy-1-oxo-1a,2,3,3a,4,6b-hexahydro-1H-2,6a-diazacyclobut[cd]indene-6-carboxylate] | 32 (≈ 71 µM) |
| Cn1nnnc1SC1=C(C(=O)O)N2C(=O)[C@H]3NC[C@@H](C1)[C@H]32 [Example 2(a), (1aS,3aR,6bR)-5-(1-Methyl-1H-tetrazol-5-ylsulphanyl)-1-oxo-1a,2,3,3a,4,6b-hexahydro-1H-2,6a-diazacyclobut[cd]indene-6-carboxylic acid trifluoroacetate] | 4 |
| Cn1nnnc1SCC1=C(C(=O)O)N2C(=O)[C@H]3NC[C@@H](C1)[C@H]32 [Example 15, (1aS,3aR,6bR)-5-(1-Methyl-1H-tetrazol-5-ylsulphanylmethyl)-1-oxo-1a,2,3,3a,4,6b-hexahydro-1H-2,6a-diazacyclobut[cd]indene-6-carboxylic acid trifluoroacetate] | 2 |
| CC(=O)N1C[C@H]2CC(CSc3nnnn3C)=C(C(=O)O)N3C(=O)[C@@H]1[C@@H]23 [Example 19(a), (1aS,3aR,6bR)-2-Acetyl-5-(1-methyl-1H-tetrazol-5-ylsulphahylmethyl)-1-oxo-1a,2,3,3a,4,6b-hexahydro-1H-2,6a-diazacyclobut[cd]indene-6-carboxylic acid sodium salt] | 0.5 |
